Measurements from paper PMC9775191, “A Subset Screen of the Compounds Australia Scaffold Library Identifies 7-Acylaminodibenzoxazepinones as Potent and Selective Hits for Anti-Giardia Drug Discovery” (Biomedicines, 2022).

Test system: G. duodenalis BRIS/91/HEPU/1279
Test: Primary Giardia screen at 10 µM (live-cell imaging, automated counting)
Assay type: cell-based, Giardia duodenalis
Settings: for % Inhibition n=1 48h / % Inhibition n=1 24h: first singlicate assay; for % Inhibition n=2 24h / % Inhibition n=2 48h: re-assessment
Summary of the method: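 One concentration, 10 μM, is screened per compound in singlicate under microaerophilic gas (3% O2, 5% CO2, N2). Inhibition comes from automated image-based counts at 24 and 48 h, relative to 0.2% DMSO controls.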

Compound: O=C(Nc1ccc(Br)cc1)c1ccc(F)c(S(=O)(=O)NCCc2ccccc2)c1 [SN00794458]
- % Inhibition n=1 48h: 3.9%

Compound: CCN(CC)S(=O)(=O)c1ccc2[nH]cc(C(=O)NCCCN3CCCC3)c(=O)c2c1 [SN00794535]
- % Inhibition n=1 48h: 13.0%

Compound: COc1ccc(CCNC(=O)C2c3ccccc3C(=O)N2Cc2ccc(C)cc2)cc1OC (stereo not drawn) [SN00794542]
- % Inhibition n=1 48h: 6.3%

Compound: CC(=O)Nc1cc(C(=O)NCCCN2CCC(C)CC2)ccc1S(=O)(=O)c1ccc(Cl)cc1 [SN00794609]
- % Inhibition n=1 48h: 23.9%

Compound: Cc1nccc2[nH]c(=O)c(C(=O)NCCCN(C)C3CCCCC3)cc12 [SN00794671]
- % Inhibition n=1 48h: 0.0%

Compound: CCOc1ccc(-c2nc(CSCC(=O)N3CCN(c4ccc(Cl)cc4)CC3)c(C)o2)cc1 [SN00794684]
- % Inhibition n=1 48h: 0.0%

Compound: CCN(c1ccccc1)S(=O)(=O)c1ccc2[nH]cc(C(=O)NCCOC)c(=O)c2c1 [SN00794693]
- % Inhibition n=1 48h: 10.4%

Compound: CCOC(=O)c1cc(-c2ccccc2)n(CCC(=O)N2CCn3c2nc2ccccc23)c1C [SN00794728]
- % Inhibition n=1 48h: 10.1%

Compound: Cc1ccc(NS(=O)(=O)c2ccc(-n3cccn3)cc2)cc1 [SN00794732]
- % Inhibition n=1 48h: 6.0%

Compound: O=C(NCc1ccccc1)c1ccc(-c2cc(N3CCOCC3)ncn2)cc1 [SN00794761]
- % Inhibition n=1 48h: 12.2%

Compound: O=C(Nc1cccc(C(=O)N2CCCC2C(=O)NCCc2ccccc2)c1)c1cccs1 (stereo not drawn) [SN00794771]
- % Inhibition n=1 48h: 3.7%

Compound: CCNC(=O)C1CCCN1C(=O)c1cccc(NC(=O)c2ccc(Br)cc2)c1 (stereo not drawn) [SN00794777]
- % Inhibition n=1 48h: 0.0%

Compound: COc1cc(OC)c(NC(=O)N2CCN(c3nc4ccccc4n3C)CC2)cc1Cl [SN00794807]
- % Inhibition n=1 48h: 0.0%

Compound: O=C(c1csc(-c2ccncc2)n1)N1CCN(c2ccccc2)CC1 [SN00794830]
- % Inhibition n=1 48h: 15.8%

Compound: O=S(=O)(Cc1ccc(Cl)cc1)c1nc2ccccc2nc1N1CCC2(CC1)OCCO2 [SN00794883]
- % Inhibition n=1 48h: 15.2%

Compound: Cc1ccc2c(c1)n(Cc1ccc(Cl)cc1)c(=O)c1nc(C(=O)NCCc3cccs3)nn12 [SN00794982]
- % Inhibition n=1 48h: 29.9%

Compound: Cc1ccc(NC(=O)c2nc3c(=O)n(Cc4ccccc4C)c4cc(C)ccc4n3n2)cc1 [SN00794983]
- % Inhibition n=1 48h: 3.1%

Compound: Cc1ccnc(N2CCCC(C(=O)NC3CCCC3)C2)n1 (stereo not drawn) [SN00795015]
- % Inhibition n=1 48h: 10.9%

Compound: Cc1ccnc(N2CCCC(C(=O)N3CC=C(c4ccccc4)CC3)C2)n1 (stereo not drawn) [SN00795039]
- Average % Inhibition 24h: 18.0%
- % Inhibition n=1 24h: 29.9%
- % Inhibition n=2 24h: 6.1%
- Average % Inhibition 48h: 46.1%
- % Inhibition n=1 48h: 57.6%
- % Inhibition n=2 48h: 34.6%

Compound: Cc1ccc(C2c3cccn3-c3ccccc3CN2C(=O)c2cccnc2)cc1 (stereo not drawn) [SN00795042]
- % Inhibition n=1 48h: 0.0%

Compound: Cc1ccc(-c2cc3nc(C)cc(N4CCC(C(=O)NCCCN5CCCC5)CC4)n3n2)cc1 [SN00795048]
- % Inhibition n=1 48h: 16.1%

Compound: Cc1cc(N2CCC(C(=O)N3CCN(c4ccc(F)cc4)CC3)CC2)n2nc(-c3ccccc3)cc2n1 [SN00795072]
- % Inhibition n=1 48h: 0.0%

Compound: O=S(=O)(c1ccc(-c2cnc(C3CCC3)o2)s1)N1CCC2(CC1)OCCO2 [SN00795093]
- % Inhibition n=1 48h: 7.0%

Compound: O=S(=O)(NCCC1=CCCCC1)c1ccc(-c2cnc(C3CCCC3)o2)s1 [SN00795100]
- % Inhibition n=1 48h: 27.9%

Compound: CCOc1ccc(N/C(=N\S(C)(=O)=O)Nc2cc(C)c(Cl)cc2OC)cc1 [SN00795110]
- % Inhibition n=1 48h: 18.1%

Compound: COc1ccc(CC(=O)N2CCN(Cc3nc4cc(C(=O)N5CCCC5)ccc4n3C)CC2)cc1 [SN00795130]
- % Inhibition n=1 48h: 13.8%

Compound: CCCNS(=O)(=O)c1cc(-c2nc(-c3cccc(Cl)c3)cs2)n(C)c1C [SN00795169]
- Average % Inhibition 24h: 21.9%
- % Inhibition n=1 24h: 31.8%
- % Inhibition n=2 24h: 12.0%
- Average % Inhibition 48h: 32.8%
- % Inhibition n=1 48h: 47.2%
- % Inhibition n=2 48h: 18.5%

Compound: Cc1csc(-c2cc(S(=O)(=O)N3c4ccccc4CC3C)c(C)n2C)n1 (stereo not drawn) [SN00795179]
- Average % Inhibition 24h: 22.6%
- % Inhibition n=1 24h: 34.1%
- % Inhibition n=2 24h: 11.1%
- Average % Inhibition 48h: 63.7%
- % Inhibition n=1 48h: 71.5%
- % Inhibition n=2 48h: 55.8%

Compound: Cc1ccc2oc(-c3noc(C(=O)NCC4CCCO4)n3)c(C)c2c1 (stereo not drawn) [SN00795207]
- % Inhibition n=1 48h: 0.0%

Compound: COc1ccc2oc(-c3noc(C(=O)NCCN4CCCCCC4)n3)c(C)c2c1 [SN00795214]
- Average % Inhibition 24h: 11.6%
- % Inhibition n=1 24h: 16.8%
- % Inhibition n=2 24h: 6.3%
- Average % Inhibition 48h: 56.6%
- % Inhibition n=1 48h: 52.1%
- % Inhibition n=2 48h: 61.1%

Compound: Cc1ccc(S(=O)(=O)NC2CCN(C(=O)Cc3ccc(Br)cc3)CC2)cc1 [SN00795227]
- % Inhibition n=1 48h: 3.1%

Compound: O=C(c1ccco1)N1CCC(NS(=O)(=O)c2ccc(Cl)cc2)CC1 [SN00795232]
- % Inhibition n=1 48h: 0.0%

Compound: Cc1cccc(-c2nc(-c3ccc(NS(C)(=O)=O)cc3)no2)c1 [SN00795250]
- % Inhibition n=1 48h: 9.2%

Compound: COc1ccc(-c2c(C(=O)Nc3cccc(Cl)c3)nn3c(C)cc(=O)[nH]c23)cc1 [SN00795279]
- % Inhibition n=1 48h: 7.0%

Compound: Cc1cccc(-c2nc3sc(N4CCN(C(=O)NC(C)C)CC4)nn3c2NC(C)(C)C)c1 [SN00795313]
- % Inhibition n=1 48h: 0.0%

Compound: Cc1ccccc1C(=O)Nc1cnc(N2CCNCC2)c(C(=O)N(C)Cc2ccccc2)c1 [SN00795318]
- % Inhibition n=1 48h: 15.2%

Compound: Cc1cccc(C(=O)Nc2cnc(N3CCNCC3)c(C(=O)N(CC(C)C)CC(C)C)c2)c1 [SN00795320]
- % Inhibition n=1 48h: 14.5%

Compound: COCCNc1c(-c2ccc(O)cc2)nc2sc3cc(C)ccc3n12 [SN00795351]
- % Inhibition n=1 48h: 0.0%

Compound: CCOc1ccc(-c2nc3sc4cc(C)ccc4n3c2NCCOC)cc1 [SN00795352]
- % Inhibition n=1 48h: 0.0%

Compound: Cc1ccc(S(=O)(=O)N2CCN(C)c3ccccc32)cc1 [SN00795395]
- % Inhibition n=1 48h: 8.6%

Compound: Cc1cccc(NC(=O)Nc2cc(F)c3[nH]c(=O)ccc3c2)c1C [SN00795412]
- % Inhibition n=1 48h: 0.0%

Compound: CCOC(=O)CC(NC(=O)Nc1cc(F)c2[nH]c(=O)ccc2c1)c1ccccc1 (stereo not drawn) [SN00795424]
- % Inhibition n=1 48h: 4.9%

Compound: Cc1ccc(C)c(S(=O)(=O)Nc2ccc3nnc(-c4ccccc4)n3n2)c1 [SN00795461]
- % Inhibition n=1 48h: 0.0%

Compound: O=C(NC1CC1)c1cnn2c(-c3ccccn3)ccnc12 [SN00795482]
- % Inhibition n=1 48h: 0.0%

Compound: Cc1nc2c(c(=O)n1CC(=O)Nc1cccc(F)c1)CCN(Cc1ccccc1)C2 [SN00795483]
- % Inhibition n=1 48h: 0.0%

Compound: CCOC(=O)N1CCc2c(nc(-c3ccc(C)cc3)n(CC(=O)Nc3ccc(Cl)cc3)c2=O)C1 [SN00795497]
- % Inhibition n=1 48h: 41.5%

Compound: CNC(=O)Nc1ccc(C2(C(=O)Nc3ccc(F)c(C)c3)CCC2)cc1 [SN00795530]
- % Inhibition n=1 48h: 0.0%

Compound: O=C(CCC(=O)N1CCCN(c2nc3cccnc3s2)CC1)NCCc1c[nH]c2ccccc12 [SN00795593]
- % Inhibition n=1 48h: 0.0%

Compound: CC1CCN(CCCNC(=O)c2ccc(-c3nc(-c4ccccc4)no3)cc2)CC1 [SN00795676]
- % Inhibition n=1 48h: 23.6%

Compound: O=C(c1cccc(-c2nc(-c3ccc(F)cc3)no2)c1)N1CCN(c2ccccc2)CC1 [SN00795713]
- % Inhibition n=1 48h: 0.9%

Compound: CC(C)(C)Nc1c(-c2ccc(F)cc2)nc2sc(N3CCN(Cc4ccccn4)CC3)nn12 [SN00795823]
- % Inhibition n=1 48h: 32.2%

Compound: COc1ccc(C)cc1NC(=O)Nc1c(-c2ccncc2)[nH]c2c(Cl)cccc12 [SN00795853]
- % Inhibition n=1 48h: 0.0%

Compound: CC1(C(=O)NCc2cccc(F)c2)CCCN(C(=O)Cc2cccs2)C1 (stereo not drawn) [SN00795886]
- % Inhibition n=1 48h: 29.2%

Compound: COc1ccc(S(=O)(=O)N2CCCC(C)(C(=O)NCc3ccc(F)cc3)C2)cc1 (stereo not drawn) [SN00795932]
- % Inhibition n=1 48h: 8.4%

Compound: CCCC(=O)Nc1cc(F)c2nc(N3CCCCC3)ccc2c1 [SN00795955]
- % Inhibition n=1 48h: 0.0%

Compound: O=S(=O)(Cc1ccccc1)Nc1cccc(-c2nnc(Cc3ccc4c(c3)OCO4)o2)c1 [SN00795993]
- Average % Inhibition 24h: 17.2%
- % Inhibition n=1 24h: 34.4%
- % Inhibition n=2 24h: 0.0%
- Average % Inhibition 48h: 46.9%
- % Inhibition n=1 48h: 80.2%
- % Inhibition n=2 48h: 13.6%

Compound: COc1cccc(-n2ccn3cc(-c4ccc(OC)c(OC)c4)nc3c2=O)c1 [SN00796018]
- % Inhibition n=1 48h: 36.9%

Compound: Cc1ccc(S(=O)(=O)N2CCC3(CC2)NCCN=C3NC2CCCCCC2)c(C)c1 [SN00796055]
- % Inhibition n=1 48h: 0.0%

Compound: CCCNC(=O)N1CCN(Cc2nc3cccnc3n2-c2ccc(CC)cc2)CC1 [SN00796091]
- % Inhibition n=1 48h: 0.0%

Compound: Cc1cccc(-n2c(CN3CCN(C(=O)NCC4CCCO4)CC3)nc3cccnc32)c1 (stereo not drawn) [SN00796109]
- % Inhibition n=1 48h: 0.7%

Compound: COc1ccc(-n2c(CN3CCN(S(=O)(=O)c4cc(C)ccc4C)CC3)nc3cccnc32)cc1 [SN00796116]
- % Inhibition n=1 48h: 13.7%

Compound: CCc1ccc(-n2c(CN3CCN(S(C)(=O)=O)CC3)nc3cccnc32)cc1 [SN00796120]
- % Inhibition n=1 48h: 7.0%

Compound: Cn1cc2c(n1)c(=O)n(Cc1ccccc1)c(=O)n2CC(=O)Nc1cccc(F)c1 [SN00796169]
- Average % Inhibition 24h: 30.6%
- % Inhibition n=1 24h: 37.8%
- % Inhibition n=2 24h: 23.4%
- Average % Inhibition 48h: 62.8%
- % Inhibition n=1 48h: 46.9%
- % Inhibition n=2 48h: 78.6%

Compound: COc1ccccc1-c1nc(C2CCN(C(=O)COc3ccccc3)CC2)no1 [SN00796215]
- % Inhibition n=1 48h: 15.9%

Compound: O=C(Cc1csc2nc(-c3ccccc3)cn12)NCCc1cccs1 [SN00796222]
- % Inhibition n=1 48h: 0.0%

Compound: Cc1ccc(-n2nc(C)c3sc(N4CCCC(C(=O)NCc5ccc6c(c5)OCO6)C4)nc32)cc1 (stereo not drawn) [SN00796247]
- % Inhibition n=1 48h: 0.0%

Compound: Cc1ccc(-n2nc(C)c3sc(N4CCCC(C(=O)NCC5CCCO5)C4)nc32)cc1 (stereo not drawn) [SN00796250]
- % Inhibition n=1 48h: 2.9%

Compound: Cc1ccc(NC(=O)Nc2ccc3c(c2)CCN3S(=O)(=O)c2ccccc2)cc1 [SN00796277]
- % Inhibition n=1 48h: 10.0%

Compound: Cc1c(F)cccc1NC(=O)Nc1ccc2c(c1)CCN2S(C)(=O)=O [SN00796291]
- % Inhibition n=1 48h: 21.1%
